Results on one substance are retold here after US20240101602A1, “ANTIMICROBIAL PEPTIDES AND METHOD OF PREVENTING OR TREATING INFECTION BY USING THE SAME” (priority 2020, published 2024).

The test system of series [1] is Xanthomonas euvesicatoria strain Xvt28. The series is described as follows: IC50 of bacterial growth (OD600) in rich liquid medium. Format: cell-based. As to conditions: Xev Xvt28, 24 h, purified peptides. The protocol: (§1) To measure the antimicrobial activity, single colony grown on an optimal rich agar medium for each bacterium was picked and grew in 3 mL of the same rich liquid medium for 4 to 6 h. The bacterial culture was then diluted in the same medium to give a final concentration of OD600=0.08 and then further diluted […] in the same medium. In each well of a 96-well polystyrene plate, 90 μL of the diluted culture was mixed with 10 μL of the peptide to give a peptide concentration of 0, 2, 10, and 20 μg/mL (final cell concentration is 5×10^5 CFU/mL). OD600 was measured after incubation at an optimal temperature for 24 h. IC50 was determined as the lowest peptide concentration inhibiting 50% of bacterial growth.

The test system of series [2] is Xanthomonas campestris pv. campestris strain Xcc17. The description is as above. The series is classed as cell-based. As to conditions: Xcc Xcc17, 24 h, purified peptides. The procedure:
as §1

Series [3] is described as follows: CD spectra of pepD in liposomes. The series is classed as physicochemical. As to conditions: CD in water, DOPC, POPE/POPG (1:1, w/w) liposomes. The procedure:
1,2-dioleoyl-sn-glycero-3-phosphocholine (DOPC) is commonly used to mimic mammalian cell membrane. 1-Palmitoyl-2-oleoyl-sn-glycero-3-phosphoglycerol (POPG) has a negatively charged head group. The mixture of 1-palmitoyl-2-oleoyl-sn-glycero-3-phosphoethanolamine (POPE) and POPG is commonly used to mimic the negatively charged membrane surface of bacteria.
For the CD spectra of pepD in lipids, two kinds of liposomes DOPC and POPE/POPG (1:1, w/w) were prepared. DOPC (10 mg/mL) and POPE/POPG (14 mg/mL) were dissolved in chloroform/methanol (9/1, v/v) in a glass tube individually. The solvents were evaporated under the purge of nitrogen gas to form a thin lipid film on the tube surface. The tube was placed in vacuo overnight to completely remove the organic solvent. To rehydrate the lipid film, 400 μL deionized water was added and mixed in an Intelli-Mixer (rocker mode, 60 rpm) for one hour. Then, the water/lipid mixture was frozen in liquid nitrogen and thawed at 45° C. for 5 min. After five freeze-thaw cycles, liposomes were prepared by extruding the mixture through a polycarbonate filter (with 200-nm pore size) using an Avanti Mini-Extruder (Avanti Polar Lipids, USA). Purified pepD was dissolved in water (64 μg/mL) and mixed with an equal volume of the liposome suspension for CD measurement.

The subject of series [4] is Escherichia coli strain DH5a. As to conditions: DH5a, 24 h.
Series [5] relates to Pseudomonas syringae pv. syringae strain B728a. As to conditions: Pss B728a; Table 7.
The subject of series [6] is Candida albicans SC5314. As to conditions: SC5314, 48 h.
For series [7], the system named is Pectobacterium carotovorum subsp. carotovorum. The series is classed as cell-based. In a few lines:
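Bacteria were grown 4–6 h, set to OD600=0.08 in rich or minimal medium, then diluted 100-fold. This inoculum was mixed 1:1 with 2-fold serial peptide dilutions and incubated static at optimal temperature. MIC was read from growth and MBC taken as the lowest concentration giving no colonies.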

The test system of series [8] is Xanthomonas oryzae pv. oryzae strain Xoo28. As to conditions: Xoo Xoo28; Table 7.
In series [9] the test system is Xanthomonas euvesicatoria strain Xvt28. The series is described as follows: MIC and MBC by serial dilution in 96-well plate. The series is classed as cell-based. As to conditions: Xev Xvt28; Table 7. The protocol:
(§2) The effect of peptide length on the antimicrobial activity was investigated by deciding the minimal inhibitory concentration (MIC) and minimal bactericidal concentration (MBC) for each peptide against the pathogen with the media and growth conditions of phytopathogenic bacteria and E. coli as described in Table 1. Single bacterial colony grown on an optimal rich agar medium was picked, and each grew in 3 mL of the same rich liquid medium for 4 to 6 h.
(§3) For experiments carried out in the rich medium, the bacterial broth culture was then diluted in the same medium to give a final concentration of OD600=0.08, and then further diluted 100 folds in the same medium.
(§4) For experiments carried out in the minimal medium, the bacterial cells were collected from the bacterial liquid culture by centrifugation, re-suspended in an optimal minimal medium to give a final concentration of OD600=0.08, and then further diluted 100 folds in the same minimal medium.
(§5) Fifty microliters of serially diluted peptides (2-fold the final concentration) were added in a 96-well polystyrene plate with 50 μL of the bacterial culture. The final concentrations of peptides were 0, 2, 4, 8, 16 and 32 μg/mL. The plates were incubated at an optimal temperature without shaking.
(§6) MBC was determined as the lowest peptide concentration at which no colonies formed.

Series [10] deals with Xanthomonas campestris pv. campestris strain Xcc17. The series is described as follows: MIC and MBC by serial dilution in 96-well plate. Format: cell-based. As to conditions: Xcc Xcc17; Table 7. The protocol:
as §2, §3, §4, §5, §6

Series [11] concerns Agrobacterium tumefaciens strain Atu C58C1. As to conditions: Atu C58C1; Table 7.
Series [12] deals with Xanthomonas oryzae pv. oryzae strain Xoo28. As to conditions: Xoo Xoo28; rich medium, 24 h, purified peptides.
For series [13], the system named is Pseudomonas syringae pv. tomato strain DC3000.
Series [14] concerns Eco DH5α. The series is described as follows: MIC and MBC by serial dilution in 96-well plate. The series is classed as cell-based, Escherichia coli. As to conditions: Table 7. The protocol:
as §2, §3, §4, §5, §6

In the case of Ac-WKKLKKLLKKLKKLLKKL-NH2 [pepD], the IC50 is 4.0 µg/mL in series [1], 4.0 µg/mL in [2], 10.0 µg/mL in [4] and 8.0 µg/mL in series [12]. In addition, the lipid selectivity result in series [3] is “only interacts with negatively charged lipid”. In addition, the MBC entry in series [5] is “— (“—” indicates no antimicrobial activity being detected at the highest peptide concentration (32 μg/mL) tested in this study.)”; in [7] (Pcc, Table 7), “— (“—” indicates no antimicrobial activity being detected at the highest peptide concentration (32 μg/mL) tested in this study.)”; in series [8], 4.0 µg/mL; in series [9] it was 18.7 µg/mL; in series [10] it was 6.7 µg/mL; in [11], “— (“—” indicates no antimicrobial activity being detected at the highest peptide concentration (32 μg/mL) tested in this study.)”. Besides, the MBC in series [13] was found to be 24.0 µg/mL; in series [14], 10.0 µg/mL. The MIC in series [5] was 32.0 µg/mL; in series [6] it was 16.0 µg/mL; in series [7], 32.0 µg/mL; in [8] it was 4.0 µg/mL; in series [9] it was 5.3 µg/mL; in series [10], 2.7 µg/mL. Besides, the MIC came out at 16.0 µg/mL in [13] and 10.0 µg/mL in series [14].

As usually defined, the IC50 is the concentration at which inhibition is half-maximal. In general, MBC refers to the smallest concentration meeting the test's criterion for killing. Lower therefore signals greater bactericidal potency. In general, MIC refers to the least concentration at which growth counts as inhibited. Low readings indicate inhibition by little substance, high ones a need for much substance.
